Laboratory results from US7763287B2, “Extract of Cercis chinensis having anti-oxidant activity and anti-aging activity, and cosmetical composition containing the extract for anti-oxidation, skin-aging protection and wrinkle improvement” (Hankook Pharm. Co., Inc., priority 2002, dated 2010).

Experiments:
[1] = DPPH radical scavenging activity; format: biochemical
Protocol: In order to extract an effective ingredient having an anti-oxidant activity from Cercis chinensis, an experiment was performed following the procedure represented in a schematic diagram of FIG. 1. Particularly, 1 kg of leaves and stems of Cercis chinensis, dried in shadow, were grinded to powder using a pulverizer, which was extracted by ethanol (EtOH) at room temperature twice at intervals of two weeks. For the extraction, ethanol solutions were prepared by adding ethanol gradually, 10% at a time, from 0% to 100%. The prepared ethanol solutions were used for the extraction. […] But, it looses absorbance when being scavenged. Based on that point, an anti-oxidant activity can be measured using DPPH. […] Then, each solution was distributed into a 96 well plate by 10 μl each, into which 190 μl of DPPH(Sigma, St. Louis, Mo, USA) solution whose ethanol concentration was 2×10^−4 M/ml was added. The plate was just left at room temperature for 30 minutes. Finally, OD517 was measured at 517 nm. For a control, DMSO was added instead of the sample, and changes of optical density were investigated. […] DDPH Radical Scavenging Activity (%)=(Acontrol−Asample)/(Acontrol)×100 <Mathematica Formula 1>
Acontrol: Optical density of control group (sample was not added),
Asample: Optical density of experimental group (sample was added).
In order to identify a fraction having an anti oxidant activity among hexane Fr, EtOAc Fr and BuOH Fr obtained above, a DPPH radical scavenging activity was measured using each extract of each fraction following the method used above. At this time, vitamin E, known to have high DPPH radical scavenging activity, was used as a comparing group.
At this time, BHA (tert-butyl-4 hydroxyanisole) and α-tocopherol, synthetic anti-oxidant agents, were used as positive controls.

[2] = Superoxide radical scavenging activity (xanthine/xanthine oxidase, NBT); format: biochemical; conditions: Table 6
Protocol: Superoxide radical (O^2−) itself has a little reactivity, but is easily changed into H2O2 that generates hydroxyl radical having strong reactivity or is reacted with nitric oxide (NO.) to generate peroxy nitrite (ONOO^−) having strong reactivity, too. Thus, it might be a reason for oxidation of SH-group, nitration of protein tyrosine, lipid peroxidation and DNA damage. […] Basically, measurement of superoxide radical scavenging activity was performed by investigating the activity of superoxide dismutase (SOD), an enzyme scavenging superoxide by dismutation of the same. In the present invention, an activity of a sample to inhibit superoxide production by the enzyme reaction of xanthine/xanthine oxidase and its another activity to inhibit reaction (NBT+20^2−→NBTH2+2O2) generating formazan by reduction of nitro blue tetrazolium (referred as ‘NBT’ hereinafter) were measured. Particularly, wells of a 96-well plate were supplemented with 50 μl of 4 mM xanthine (Sigma), 50 μl of […] NBT (Sigma), 50 μl of 50 mM phosphate buffer (pH 7.8, 1 mM EDTA) and 10 μl of each sample, into which 40 μl of xanthine oxidase was added to induce a reaction. After the reaction was completed, each reaction solution was collected as scheduled, and OD550 was measured with an ELISA reader. […] Superoxide Radical Scavenging Activity (%)=(Acontrol−Asample)/(Acontrol−Ablank)×100 <Mathematical Formula 4> […]

[3] = tested on: HEK-N/F cells; assay: Cell protection from UV irradiation (DNA damage, ethidium homodimer fluorescence); format: cell-based, human; conditions: 35 mJ/cm^2 UVB, Et2 fluorescence (DNA damage)
Protocol: UV irradiation induces DNA damage and DNA-protein connection by increasing active oxygen in cells. When HEK-N/F cells were irradiated by 35 mJ/cm^2 of UVB, DNA chains in nucleus were cut. After uniting the broken chains to ethidium homodimer (Et2), a DNA chain intercalating fluorescent dye, extent of fluorescence was measured to quantify the amount of DNA damage. Particularly, HEK-N/F cells were cultured on serum-free KGM medium (Clonetics), which were inoculated into wells of a 24-well plate by 0.5−4×10^4 cells/2 cm^2. Then, the cells were cultured for 18 hours, after which a sample was treated thereto for 2 hours. […] The cells exposed on UV were further cultured for 1-7 hours, and then, […] ethidium homodimer (Et2, Millipore) was added. 30 minutes later, fluorescence was measured with Millipore microplate fluorometer Cytofluor 2350 (excitation: 485 nm, emission: 645 nm).

[4] = tested on: HEK-N/F cells; assay: Prolongation of life span of a cell; format: cell-based, human; conditions: 3 μg/ml during culture
Protocol: HEK-N/F cells were obtained from foreskin of a newborn baby after its fibroblasts, another major component of skin, were treated with uridine bromide. Then, the cells were cultured in DMEM medium supplemented with 10 FBS. HEK-N/F cells were diluted consecutively at the ratio of 1:4 during the culture. Before being treated with samples, the cells were grown up to 3 PDL (population doubling level). During the culture, each sample was administered by […]. Medium was replaced every three days by fresh medium supplemented with a culture solution containing the equal concentration of the sample.

[5] = tested on: HEK-N/F cells; assay: Telomere length / maximum PDL (Southern blot of TRFs); format: cell-based, human
Protocol: In the above Example 8, an extract of […] chinensis and active ingredients separated from the same were confirmed to have an effect of prolongation of life span of a cell. Thus, in this example, relation between the effect of prolongation of life span and the length of a telomere was investigated. Particularly, genomic DNA was extracted from each cell of different ages by using a nucleic acid extraction kit (Isoquick Nucleic Acid Extraction kit, ORCA Research Inc.), which was stored at 4° C. after being dissolved in Tris-EDTA solution (10 mM Tris-HCl, 1 mM EDTA, pH 8.0). 2 μl of 10×H buffer solution (TaKaRa), 2 μl of the extracted genomic DNA solution and distilled water were all mixed in a 1.5 ml tube, making final volume 19 μl. Then, 1 μl at of restriction enzyme […]) was added thereto. […] Then, the gel was immersed in 0.25 N HCl, followed by shaking for 15 minutes. The gel was washed twice with distilled water. This gel was dipped into denaturing solution (0.2 N NaOH, 0.6 M NaCl), followed by shaking for 25 minutes at room temperature. And then, the gel was washed three times with distilled water. On a blotting device filled with 6×SSC, nitrocellulose membrane (Optitran BA-S 85, Schleicher & Schuel), 3 mm filter paper, paper towel, glass plate and weight (2 kg) were loaded in that order, followed by blotting overnight. After the blotting was finished, membrane filter was soaked in 3×SSC, and then water was discarded smoothly. The positions of the wells on the membrane were marked. The membrane was placed between filter papers, followed by baking at 80° C. for overnight. […] After being dried, the membrane was covered with wrap and set in a cassette on which X-ray film (Scientific Imaging Film, Kodak) and intensifying screen were attached. Autoradiography was performed at -80° C. for overnight. Based on the developed film and the location of the membrane, the positions of the wells were marked by a magic pen. The density peak of TRFs was detected by a laser densitometer (UltroScan XL, Pharmacia) and its mobility was calculated.

O=c1c(O)c(-c2cc(O)c(O)c(O)c2)oc2cc(O)cc(O)c12 [Chemical Formula 9, myricetin]
DPPH radical scavenging activity (in words) [1]: strong radical scavenging activity
DPPH radical scavenging activity IC50 ([1]; Table 3): 7.3 ± 0.3 µg/mL
Superoxide radical scavenging activity IC50 [2]: 12.1 ± 1.1 µg/mL
fluorescence lower than that of a control [3]: 54.7%
average life span of a cell [4]: 56 days
life span, times as long as that of a control [4]: 1.6 times
telomere shortening speed delayed, comparing to control [5]: 1.6 times
maximum PDL ([5]; control 14.1): 23.1
